In patent publication US20230295163A1, “TETRACYCLIC DERIVATIVE, METHOD FOR PREPARING SAME AND USE THEREOF IN MEDICINE” (ZHEJIANG HISUN PHARMACEUTICAL CO., LTD., priority 2020, published 2023):

Tests used:
[1] = system: NCI-H358 cells; assay: Inhibition of NCI-H358 cell proliferation (CellTiter-Glo); type: cell-based, human; conditions: Homo sapiens, NCI-H358, 120 h, 120 h of culture; read-out: IC50 inhibiting NCI-H358 cell proliferation
Method: The following method was used to determine the effect of the compounds of the present disclosure on the proliferation of NCI-H358 cells. NCI-H358 cells (containing KRAS G12C mutation) were purchased from the Cell Resource Center, Shanghai Institutes for Biology Sciences, Chinese Academy of Sciences, and cultured in RPMI 1640 medium containing 10% fetal bovine serum, 100 U penicillin, 100 μg/mL streptomycin and 1 mM sodium pyruvate. Cell viability was determined by CellTiter-Glo® Luminescent Cell Viability Assay Kit (Promega, Cat. No. G7573).
The experiment was conducted according to the steps in the kit instruction, which is briefly described as follows: The test compound was first prepared with DMSO into a 10 mM stock solution, which was then diluted with medium into a test sample with a final concentration of the compound ranging from 1000 nM to 0.015 nM Cells in the logarithmic growth phase were inoculated into a 96-well cell culture plate at a density of 800 cells per well, cultured overnight at 37° C. in a 5% CO2 incubator, and then added with the test compound for 120 h of culture. After the culture was completed, 50 μL of CellTiter-Glo detection solution was added to each well, shaken for 5 min and left to stand for 10 min. Subsequently, the luminescence value of the sample in each well was read by a microplate in a luminescence mode. The percentage of inhibition rate of the compounds at each concentration was calculated by comparing with the value of the control group (0.3% DMSO). Then a nonlinear regression analysis on the log concentration-inhibition rate of the compounds was performed by the software GraphPad Prism 5 to obtain the IC50 value of the compound inhibiting NCI-H358 cell proliferation. Table 2 IC50 data of compounds of the present disclosure inhibiting NCI-H358 cell proliferation Compound number IC50(nM)

[2] = ICR mouse pharmacokinetic research; type: in vivo; conditions: plasma, po, ICR mice, intragastric administration 5 mg/kg
Method: ICR mice were used as test animals. The drug concentrations in plasma at different time points of the compounds in Comparative Example 1 and Example 17 of the present disclosure intragastrically administered to the mice were determined by LC/MS/MS method, to study the pharmacokinetic characteristics of the compounds of the present disclosure in mice.
Preparation for intragastric administration: An appropriate amount of the compound to be tested was weighed, added with an appropriate amount of DMSO: PEG 200=5%: 95% (v/v), shaken by vortex, and prepared into a solution with a final concentration of 0.5 mg/mL.
Intragastric administration group: After fasting overnight, the mice were intragastrically administered at a dose of 5 mg/kg and a volume of 10 mL/kg, and fed 4 h after the administration.
Intragastric administration group: About 100 μL of blood was collected through the orbital vein before administration and at 0.25 h, 0.5 h, 1 h, 2 h, 4 h, 8 h, 12 h and 24 h after administration.
The whole blood sample was put in an EDTA-K2 anticoagulant tube. The plasma was separated by centrifugation at 1500 g for 10 min. The collected upper layer plasma was stored at −40 to −20° C. before analysis.
The content of the compound to be tested in mouse plasma was determined by LC-MS/MS after the compound was intragastrically administered.

[3] = system: NCI-H358 cell xenograft tumor; assay: Pharmacodynamics in NCI-H358 cell BALB/c nude mouse subcutaneous xenograft model; type: in vivo, BALB/c nude mice; conditions: 10 mg/kg po qd
Method: This test is used to evaluate the anti-tumor effect and safety of the compound 17 of the present disclosure in the animal model of BALB/c nude mouse subcutaneously transplanted with NCI-H358 (human non-small cell lung cancer) cell line after oral intragastric administration for 14 days, once a day.
An appropriate amount of compound 17 was weighed into a 10 mL centrifuge tube, added with an appropriate amount of DMA, shaken by vortex for complete dissolution of the solid matter, then added with an appropriate volume of 30% solutol HS 15, shaken by vortex, mixed well, and added with normal saline to make the ratio of DMA:30% solutol HS 15:saline 10:10:80 (v/v/v), for a preparation at a concentration of 1 mg/mL for administration.
About 3.7×10^6 NCI-H358 cells were subcutaneously inoculated on the right side of the back of female BALB/c nude mice. When the average volume of the tumor reached about 100-150 mm^3, the mice were randomly divided into 2 groups according to the size of the tumor, 6 mice in each group.
After tumor inoculation, a subcutaneous xenograft tumor model was established. Each treatment group and the vehicle control group were orally intragastrically administered for 14 days. The animals were weighed daily, and the tumor volume was measured twice a week.
Formulas for calculating the tumor volume (TV), relative tumor proliferation rate (T/C), relative tumor growth inhibition rate (TGI) and tumor inhibition rate (IR) are as follows: • (1) TV (tumor volume)=½×a×b^2, where a and b represent the length and width of the tumor, respectively; • (2) T/C (relative tumor proliferation rate, %)=TRTV/CRTV×100%, where TRTV is the RTV of the treatment group, and CRTV is the RTV of the control group; • (3) TGI % (tumor growth inhibition rate)=(1−T/C)×100%; where T and C are the relative tumor volumes at a specific time point in the treatment group and the control group, respectively. • (4) IR (%) (tumor weight inhibition rate)=(1−TWt/TWc)×100%, where TWt is the tumor weight in the treatment group, and TW is the tumor weight in the control group.

Structure (SMILES): C=CC(=O)N1C[C@@H]2C(=O)N(C)c3c(c4cc(Cl)c(-c5c(O)cccc5F)nc4n(-c4c(SC)ccnc4C(C)C)c3=O)N2C[C@H]1C (single isomer, unassigned) [Compound 17]
- IC50 [1]: 21.1 nM
- AUC(0-inf) ([2]; read-out: Area under curve AUC0-∞): 6380 ng·h/mL
- Cmax ([2]; read-out: Blood concentration Cmax): 1400 ng/mL
- half-life ([2]; read-out: Half-life T½ (converted)): 142 min
- IR (tumor weight inhibition rate) ([3]; 14 days): 90.8%
- Tumor weight (x ± S) ([3]; 14 days): 0.0157 ± 0.0033 g
- T/C (%) ([3]; Day 15 after administration): 15.6%
- TGI (%) ([3]; Day 15 after administration): 84.4%
- Tumor volume (x ± S) ([3]; Day 15 after administration, mean ± standard error): 52 ± 15 mm^3
- Body weight change ([3]; within 14 days): without significant body weight change
- Growth inhibitory effect on the tumor model (in words) ([3]; within 14 days): obvious growth inhibitory effect
